# Target: T1, ER (Homo sapiens, UniProt P03372)
# T1 construct: transfected in MCF7 cells (containing endogenous ER); endogenous in cells; host or cells: MCF7 cells
# T1 sequence (P03372 1-595): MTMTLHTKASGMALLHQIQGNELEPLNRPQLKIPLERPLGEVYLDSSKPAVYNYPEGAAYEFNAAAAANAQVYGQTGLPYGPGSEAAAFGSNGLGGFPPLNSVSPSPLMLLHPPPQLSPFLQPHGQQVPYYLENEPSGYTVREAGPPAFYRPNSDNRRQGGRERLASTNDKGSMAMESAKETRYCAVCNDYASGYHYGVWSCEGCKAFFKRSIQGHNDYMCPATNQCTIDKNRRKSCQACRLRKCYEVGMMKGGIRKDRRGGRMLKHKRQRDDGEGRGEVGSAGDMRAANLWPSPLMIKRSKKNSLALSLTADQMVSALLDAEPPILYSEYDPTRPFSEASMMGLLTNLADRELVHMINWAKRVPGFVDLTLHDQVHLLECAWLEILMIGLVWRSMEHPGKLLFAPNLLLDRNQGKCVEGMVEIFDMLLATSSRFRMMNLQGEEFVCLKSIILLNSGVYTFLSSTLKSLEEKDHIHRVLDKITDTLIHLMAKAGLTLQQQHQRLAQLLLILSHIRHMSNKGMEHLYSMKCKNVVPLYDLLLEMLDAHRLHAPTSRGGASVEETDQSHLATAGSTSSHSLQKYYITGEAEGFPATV
# Assay: ER transcription assay (MCF7 cells), ERE-luciferase reporter
# Assay type: cell-based
# Conditions: MCF7 cells, ER reporter gene, 0.1 nM 17β estradiol, 24 hours; read-out: MCF7 IC50 (inflection point of the inhibition of transcription in MCF7 cells)
# Excerpt: ER Transcription Assay (MCF7 Cells)
# The ER transcription assay is a reporter assay that is based on the ability of ER to induce transcription from a luciferase reporter gene containing estrogen response elements (EREs) in the promoter/enhancer region. When the reporter gene is transfected in MCF7 cells (containing endogenous ER), transcription is reflected by the level of luciferase expression.
# A day before transfection, cells are split into a T75 flask at a cell density of 300,000 cells/mL (10 mL total) and allowed to attach overnight in a humidified CO2 incubator at 37° C.
# Approximately 20 ug DNA is mixed in OptiMEM (Invitrogen) to a total volume of 650 μL. Following incubation, the OptiMEM-DNA mixture is added to the OptiMEM-Lipofectin mix and incubated for 15 minutes at 37° C. The DNA-Lipofectin mixture is then added directly to the T75 flask and the flask is returned to the incubator.
# After overnight incubation, compound is added to individual wells of a 96-well plate in a 10 μL volume of media at 10× concentration along with 17β estradiol whose final concentration is 0.1 nM. Normally, DMSO (used as a vehicle) is included to achieve a final concentration of 0.1% when added to the cells. Transfected cells are trypsinized, resuspended in DMEM/F12/10% charcoal-stripped serum and added to the 96-well plate at 25,000 cells/well in 90 μL of media. The plate is then returned to the incubator for 24 hours.
# After incubation with compounds for 24 hours, Firefly and Renilla luciferase activities are measured to determine ER transcriptional activity. Media is removed from 96-well plates by decanting and blotting on paper towels.
# One second total read time after a one second delay.
# One second total read time after one second delay. If Firefly luciferase signal is high, Renilla assay must be done an hour after the Firefly assay due to incomplete squelching of Firefly signal.
# The data describing the antagonist and degradation properties for the examples is compiled in table 10. The column titled MCF7 IC50 reports the inflection point of the inhibition of transcription in MCF7 cells as described above. Percentage ERα remaining reports the remaining ERα protein measured at 10 μM concentration of the ligand as described above. The column ERα IC50 reports the inflection point of the degradation in response to the ligand concentration.
row,SMILES,IC50 [nM]
1,"Cc1cc(C)cc(-c2sc3cc(O)ccc3c2Oc2ccc(/C=C/C(=O)O)cc2)c1 [Example 23, (E)-3-(4-((2-(3,5-dimethylphenyl)-6-hydroxybenzo[b] - thiophen-3-yl)oxy)phenyl)-acrylic acid]",748
2,"Cc1cc(Oc2c(-c3ccc(O)cc3)sc3cc(O)ccc23)ccc1/C=C/C(=O)O [Example 56, (E)-3-(4-((6-hydroxy-2-(4-hydroxyphenyl)-benzo[b]thiophen-3-yl)oxy)-2-methylphenyl)-acrylic acid]",1270
3,"CCc1ccccc1-c1sc2cc(O)ccc2c1Oc1ccc(/C=C/C(=O)O)cc1 [Example 18, (E)-3-(4-((2-(2-ethylphenyl)-6-hydroxybenzo[b]-thiophen-3-yl)oxy)phenyl)-acrylic acid]",36
4,"O=C(O)/C=C/c1ccc(Oc2c(-c3ccc(C(F)(F)F)cc3C(F)(F)F)sc3cc(O)ccc23)cc1 [Example 11, (E)-3-(4-((2-(2,4-bis(trifluoromethyl)-phenyl)-6-hydroxy-benzo[b]thiophen-3-yl)oxy)phenyl)-acrylic acid]",53
5,"O=C(O)/C=C/c1ccc(Oc2c(-c3ccc(O)cc3)sc3c(F)c(O)c(F)cc23)cc1 [Example 38, (E)-3-(4-((5,7-difluoro-6-hydroxy-2-(4-hydroxyphenyl)benzo[b]-thiophen-3-yl)oxy)phenyl)acrylic acid]",152
6,"CC(=O)c1ccccc1-c1sc2cc(O)ccc2c1Oc1ccc(/C=C/C(=O)O)cc1 [Example 19, (E)-3-(4-((2-(2-acetylphenyl)-6-hydroxybenzo[b]-thiophen-3-yl)oxy)phenyl)-acrylic acid]",218
7,"Cc1cc(/C=C/C(=O)O)ccc1Oc1c(-c2ccc(O)cc2)sc2cc(O)ccc12 [Example 57, (E)-3-(4-((6-hydroxy-2-(4-hydroxyphenyl)-benzo[b]thiophen-3-yl)oxy)-3-methylphenyl)acrylic acid]",1030
8,"O=C(O)/C=C/c1ccc(Oc2c(-c3ccccc3C(F)(F)F)sc3cc(O)ccc23)cc1 [Example 8, (E)-3-(4-((6-hydroxy-2-(2-(trifluoromethyl)-phenyl)benzo[b]-thiophen-3-yl)oxy)phenyl)-acrylic acid]",23
9,"CNC(=O)/C=C/c1ccc(Oc2c(-c3ccc(C(F)(F)F)cc3)sc3cc(O)ccc23)cc1 [Example 63, (E)-3-(4-((6-hydroxy-2-(4-(trifluoromethyl)-phenyl)benzo[b]thiophen-3-yl)oxy)phenyl)-N-methylacrylamide]",185
10,"Cc1ccccc1-c1sc2cc(O)ccc2c1Oc1ccc(/C=C/C(=O)O)cc1 [Example 5, (E)-3-(4-((6-hydroxy-2-(o-tolyl)benzo-[b]thiophen-3-yl)oxy)-phenyl)acrylic acid]",89
11,"O=C(O)/C=C/c1ccc(Oc2c(-c3ccc(C(F)F)cc3)sc3cc(O)ccc23)cc1 [Example 27, (E)-3-(4-((2-(4-(difluoromethyl)phenyl)-6-hydroxybenzo[b]thiophen-3-yl)oxy)phenyl)acrylic acid]",7970
12,"Cc1ccc(C)c(-c2sc3cc(O)ccc3c2Oc2ccc(/C=C/C(=O)O)cc2)c1 [Example 14, (E)-3-(4-((2-(2,5-dimethylphenyl)-6-hydroxybenzo[b]-thiophen-3-yl)oxy)phenyl)-acrylic acid]",238
13,"Cc1cc(-c2sc3cc(O)ccc3c2Oc2ccc(/C=C/C(=O)O)cc2)ccc1O [Example 61, (E)-3-(4-((6-hydroxy-2-(4-hydroxy-3-methylphenyl)benzo[b]-thiophen-3-yl)oxy)phenyl)acrylic acid]",327
14,"NC(=O)/C=C/c1ccc(Oc2c(-c3ccc(O)cc3)sc3cc(O)ccc23)cc1 [Example 64, (E)-3-(4-((6-hydroxy-2-(4-hydroxyphenyl)-benzo[b]thiophen-3-yl)oxy)phenyl)acrylamide]",40
15,"O=C(/C=C/c1ccc(Oc2c(-c3ccc(F)cc3)sc3cc(O)ccc23)cc1)NCCC(F)(F)F [Example 33, (E)-3-(4-((2-(4-fluorophenyl)-6-hydroxybenzo[b]-thiophen-3-yl)oxy)phenyl)-N-(3,3,3-trifluoropropyl)-acrylamide]",73
16,"Cc1nnc(/C=C/c2ccc(Oc3c(-c4ccc(F)cc4C)sc4cc(O)ccc34)cc2)o1 [Example 46, (E)-2-(4-fluoro-2-methylphenyl)-3-(4-(2-(5-methyl-1,3,4-oxadiazol-2-yl)vinyl)phenoxy)benzo[b]thiophen-6-ol]",108
17,"Cn1nnnc1/C=C/c1ccc(Oc2c(-c3ccc(O)cc3)sc3cc(O)ccc23)cc1 [Example 54, (E)-2-(4-hydroxyphenyl)-3-(4-(2-(1-methyl-1H-tetrazol-5-yl)vinyl)-phenoxy)benzo[b]thiophen-6-ol]",1
18,"Cc1noc(C)c1-c1sc2cc(O)ccc2c1Oc1ccc(/C=C/C(=O)O)cc1 [Example 15, (E)-3-(4-((2-(3,5-dimethylisoxazol-4-yl)-6-hydroxybenzo-[b]thiophen-3-yl)oxy)-phenyl)acrylic acid]",404
19,"CCOC(=O)/C=C/c1ccc(Oc2c(-c3ccc(O)cc3)sc3cc(O)ccc23)cc1C [Example 34, (E)-ethyl 3-(4-((6-hydroxy-2-(4-hydroxyphenyl)benzo[b]-thiophen-3-yl)oxy)-2-methylphenyl)acrylate]",48
20,"O=C(O)/C=C/c1ccc(Oc2c(-c3ccccc3[N+](=O)[O-])sc3cc(O)ccc23)cc1 [Example 21, (E)-3-(4-((6-hydroxy-2-(2-nitrophenyl)-benzo[b]thiophen-3-yl)oxy)phenyl)-acrylic acid]",313
21,"C/C(=C\c1ccc(Oc2c(-c3ccc(O)cc3)sc3cc(O)ccc23)cc1)C(=O)O [Example 28, (E)-3-(4-((6-hydroxy-2-(4-hydroxyphenyl)benzo[b]thiophen-3-yl)oxy)phenyl)-2-methylacrylic acid]",886
22,"CNC(=O)/C=C/c1ccc(Oc2c(-c3ccc(O)cc3)sc3cc(O)ccc23)cc1 [Example 66, (E)-3-(4-((6-hydroxy-2-(4-hydroxyphenyl)benzo-[b]thiophen-3-yl)oxy)phenyl)-N-methylacrylamide]",53
23,"O=C(O)/C=C/c1ccc(Oc2c(-c3ccc(Cl)cc3)sc3cc(O)ccc23)cc1 [Example 6, (E)-3-(4-((2-(4-chlorophenyl)-6-hydroxybenzo[b]-thiophen-3-yl)oxy)phenyl)-acrylic acid]",3100
24,"Cc1cc(F)ccc1-c1sc2cc(O)ccc2c1Oc1ccc(/C=C/c2n[nH]c(=O)o2)cc1 [Example 48, (E)-5-(4-((2-(4-fluoro-2-methylphenyl)-6-hydroxybenzo[b]thiophen-3-yl)oxy)styryl)-1,3,4-oxadiazol-2(3H)-one]",422
25,"COC(=O)/C=C/c1ccc(Oc2c(-c3ccc(F)cc3)sc3cc(O)ccc23)cc1 [Example 36, (E)-methyl 3-(4-((2-(4-fluorophenyl)-6-hydroxybenzo[b]thiophen-3-yl)oxy)phenyl)-acrylate]",137
26,"O=C(O)/C=C/c1ccc(Oc2c(-c3ccc(C(F)(F)F)cc3)sc3cc(O)ccc23)cc1 [Example 3, (E)-3-(4-((6-hydroxy-2-(4-(trifluoromethyl)phenyl)benzo[b]thiophen-3-yl)oxy)phenyl)acrylic acid]",941
27,"O=C(O)/C=C/c1ccc(Oc2c(-c3cccc(F)c3)sc3cc(O)ccc23)cc1 [Example 7, (E)-3-(4-((2-(3-fluorophenyl)-6-hydroxybenzo[b]-thiophen-3-yl)oxy)phenyl)-acrylic acid]",713
28,"CN(C)Cc1ccccc1-c1sc2cc(O)ccc2c1Oc1ccc(/C=C/C(=O)O)cc1 [Example 77, (E)-3-(4-((2-(2-((dimethylamino)methyl)phenyl)-6-hydroxybenzo[b]thiophen-3-yl)oxy)phenyl)acrylic acid]",40
